Experimental data from the supplement of paper PMC8837787.

System: Saccharomyces cerevisiae ABC16-Green Monster
Test: growth inhibition at single dose (up to 150 µM), below the 70% cut-off for dose-response; higher = more potent
Conditions: 18 h; 30 °C; YPD
Outline: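 Percent growth inhibition is the reported value. Drug-sensitive S. cerevisiae ABC16-Green Monster cultures in log phase (OD600 0.1–0.2), 200 µl per well in 96-well plates, received each library compound once at 150 µM in biological duplicates, with untreated cultures run alongside. Growth was followed by OD600 at 0 h and after 18 h at 30 °C. Dose-response was not done for compounds below 70% in both replicates.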

CCc1nc2ccc(C(=O)NCc3ccc4c(c3)OCO4)cn2c1N(C)Cc1cccs1
growth inhibition at single dose: < 70%

COc1cccc(OC)c1C(=O)Nc1ccc(Cl)c(-c2nc3ccccc3s2)c1
growth inhibition at single dose: < 70%

COc1cc2c(cc1OC)CN(CCNc1ncnc3sccc13)CC2
growth inhibition at single dose: < 70%

COc1ccc(C(C)=O)cc1N1C(=O)C2C(C1=O)C1(c3ccccc3)C(=O)C2(c2ccccc2)C(c2ccc(C)cc2)=C1c1ccc(C)cc1 (stereo unspecified)
growth inhibition at single dose: < 70%

Cc1cccc(-c2nc(Nc3ccncn3)c3sccc3n2)n1
growth inhibition at single dose: < 70%

CC(=O)Oc1ccccc1C(=O)Nc1ncc([N+](=O)[O-])s1
growth inhibition at single dose: < 70%

C[C@H](C(N)=O)N1CCCC[C@H]1c1ccc(OCc2cccc(F)c2)cc1
growth inhibition at single dose: < 70%

CC(C)OCc1cc(CN2CCN(c3cccc(Cl)c3)CC2)c(O)c2ncccc12
growth inhibition at single dose: < 70%

CCOc1ccc(CCNC(=O)c2cccs2)cc1OCC
growth inhibition at single dose: < 70%

Cc1cc(C)c(C#N)c(SCC(=O)N(C)Cc2cnn(-c3ccccc3)c2)n1
growth inhibition at single dose: < 70%

Cc1nc2ccccn2c1C(=O)NCc1ccc(Cl)cc1
growth inhibition at single dose: < 70%

Nc1ncc(Br)cc1-c1nc2cc(Cl)cnc2[nH]1
growth inhibition at single dose: < 70%

CC(C)(C)CC(C)(C)NCC(O)COc1ccc(Cl)cc1Cl (stereo unspecified)
growth inhibition at single dose: < 70%

O=c1c2ccccc2[nH]c2ccc(Oc3ncnc4ccsc34)cc12
growth inhibition at single dose: < 70%

Cc1cc(C(=O)Cn2nnc3ccccc3c2=O)c(C)n1-c1ccccc1
growth inhibition at single dose: < 70%

Cc1noc(C)c1S(=O)(=O)N(Cc1ccc(C(=O)NC2CC2)cc1)C1CC1
growth inhibition at single dose: < 70%

Cc1ccc(-c2cc(C(=O)Nc3cccnc3)c3cc(Br)ccc3n2)cc1
growth inhibition at single dose: < 70%

CCCn1c(CNc2ccccc2O)nc2ccccc21
growth inhibition at single dose: < 70%

c1ccc(Nc2nc(-c3ccc4c(c3)OCCO4)cs2)nc1
growth inhibition at single dose: < 70%

O=C(Nc1ncccc1O)c1ccc(N2CCOCC2)nc1
growth inhibition at single dose: < 70%

Nc1ncnc2c1c(-c1cnc3ccccc3c1)nn2CC1CCNCC1
growth inhibition at single dose: < 70%

OC1CCC(Nc2nn3cc(-c4ccccc4)nc3s2)CC1 (stereo unspecified)
growth inhibition at single dose: < 70%

N#Cc1ccsc1NC(=O)CN1CCN(CC(=O)Nc2ccc(Cl)c(C(F)(F)F)c2)CC1
growth inhibition at single dose: < 70%

O=C(CSc1nnc(/C=C/c2ccc(F)cc2)[nH]1)N(c1ccccc1)C1CCCCC1
growth inhibition at single dose: < 70%

CCc1cc(C(=O)Nc2ncccc2O)sc1C
growth inhibition at single dose: < 70%

O=C(CN1CCOCC1)Nc1ccc2ncnc(Nc3ccc(OCc4cccc(F)c4)c(Cl)c3)c2c1
growth inhibition at single dose: < 70%

Cc1cc(C)cc(COc2ccc3c(C)c(CCC(=O)O)c(=O)oc3c2C)c1
growth inhibition at single dose: < 70%

C[C@]12CC[C@H](O)C[C@H]1CCC1C2[C@H](O)C[C@]2(C)[C@@H](C3=CC(=O)OC3)CC[C@]12O (stereo partly specified)
growth inhibition at single dose: < 70%

Cc1c(C)n(CCN(C)C)c2ncn3nc(-c4ccccc4O)nc3c12
growth inhibition at single dose: < 70%

CCOC(=O)c1c(C)[nH]c(C(=O)Nc2cccc(C)n2)c1C
growth inhibition at single dose: < 70%

CCSc1nccc(-c2ccc3c(c2)CCC(C)(C)O3)n1
growth inhibition at single dose: < 70%

Cn1c(=O)n(C)c2cc(CNCCNc3ccnc4cc(Cl)ccc34)ccc21
growth inhibition at single dose: < 70%

COc1cccc(Nc2nc(N)c3ccccc3n2)c1
growth inhibition at single dose: < 70%

CCCn1nnc(NC(=O)COc2ccc(C3CCCCC3)cc2)n1
growth inhibition at single dose: < 70%

O=C(CN1C(=O)CSc2ccc(C(F)(F)F)cc21)Nc1ccc(Cl)cc1
growth inhibition at single dose: < 70%

CCOc1ccc(N2C(N)=NC(N)=NC2(C)C)cc1
growth inhibition at single dose: < 70%

CCc1ccc(/C=C/c2ccc3cccc(O)c3n2)cc1
growth inhibition at single dose: < 70%

CC(C)Cc1ccc(C(C)c2nn3c(-c4ccco4)nnc3s2)cc1 (stereo unspecified)
growth inhibition at single dose: < 70%

Cc1ccc(N2C3c4ccccc4N(S(=O)(=O)c4ccc(C)cc4)C2c2ccccc2N3S(=O)(=O)c2ccc(C)cc2)cc1
growth inhibition at single dose: < 70%

Cc1ccc(NC(=O)c2cc(S(=O)(=O)NC(C)(C)C)ccc2C)nc1
growth inhibition at single dose: < 70%

CC(C)(C)n1ncc(C(=O)NCCOc2ccccc2)c1C(F)(F)F
growth inhibition at single dose: < 70%

O=C(CSc1nccn2nc(-c3ccccc3)cc12)Nc1cc(C(F)(F)F)ccc1Cl
growth inhibition at single dose: < 70%

COc1ccc(-c2cnc3cnc(-c4cccc(OC(C)C)c4)cn23)cc1
growth inhibition at single dose: < 70%

CC1CCCN(C(=O)C(C)Nc2cc(Cl)ccc2N2CCOCC2)C1 (stereo unspecified)
growth inhibition at single dose: < 70%

CCOC(=O)c1cnc2ccc(Cl)cc2c1NCCCN(C)C
growth inhibition at single dose: < 70%

CN(Cc1ccccc1)S(=O)(=O)c1ccc(Cl)c(C(=O)Nc2nnc(C(F)(F)F)[nH]2)c1
growth inhibition at single dose: < 70%

Cc1ccc(-c2cc3c(SCC(=O)Nc4cc(C(F)(F)F)ccc4Cl)nccn3n2)cc1
growth inhibition at single dose: < 70%

Cc1ccc(C(=O)Nc2ccc(S(=O)(=O)O)c3cc(S(=O)(=O)O)cc(S(=O)(=O)O)c23)cc1NC(=O)c1cccc(NC(=O)Nc2cccc(C(=O)Nc3cc(C(=O)Nc4ccc(S(=O)(=O)O)c5cc(S(=O)(=O)O)cc(S(=O)(=O)O)c45)ccc3C)c2)c1
growth inhibition at single dose: < 70%

Cc1cccc2c(=O)n(CC(=O)NCc3ccc(C(=O)N4CCCCC4)cc3)cnc12
growth inhibition at single dose: < 70%

CCCc1cc(NCCN(C)C)n2ncc(-c3ccccc3)c2n1
growth inhibition at single dose: < 70%

COc1ccccc1-c1noc(-c2cc3c(s2)CCCCC3)n1
growth inhibition at single dose: < 70%

COc1cc(CN2CCC3(C=Cc4ccccc43)CC2)cc2c1OCO2
growth inhibition at single dose: < 70%

N#Cc1ccc(CN2CCCN(c3ncnc4sccc34)CC2)cc1
growth inhibition at single dose: < 70%

Nc1c(C(=O)N2CCOCC2)sc2nc3c(cc12)CCCCC3
growth inhibition at single dose: < 70%

Oc1ccc2ccccc2c1CNc1nc2ccccc2[nH]1
growth inhibition at single dose: < 70%

COc1ccc(C(=O)C(CCC(CNC(C)(C)C)C(=O)c2ccc(OC)cc2)CNC(C)(C)C)cc1 (stereo unspecified)
growth inhibition at single dose: < 70%

Cc1ccc(S(=O)(=O)c2c(COC(=O)c3cccc(C)c3)c(-c3ccccc3)nn2C)cc1
growth inhibition at single dose: < 70%

CCn1nc(C(=O)NCc2ccc(OC)cc2)c2c1CCN(C(=O)C1Cc3ccccc3O1)C2 (stereo unspecified)
growth inhibition at single dose: < 70%

CN1CCN(c2ccc(NC(=O)c3csc4c3CCCC4)cc2)CC1
growth inhibition at single dose: < 70%

CO[C@@H]1CN(c2ccc(C#CC3(O)CN4CCC3CC4)c(Cc3ccccc3)n2)C[C@H]1O (stereo partly specified)
growth inhibition at single dose: < 70%

CN(N=O)C1=C(NC2CCCCC2)C(=O)c2ccccc2C1=O
growth inhibition at single dose: < 70%

O=C(C1CCN(c2nnnn2-c2ccccc2)CC1)N1CCc2ccccc2C1
growth inhibition at single dose: < 70%

Cc1cc(C=C2SC(=Nc3ccccc3)N(C3CCCC3)C2=O)c(C)n1-c1ccc(Cl)cc1
growth inhibition at single dose: < 70%

COC(=O)Cc1[nH]n(-c2nc3ccccc3s2)c(=O)c1C(C)=NCCO
growth inhibition at single dose: < 70%

CC(C)(C)n1nc(Cc2ccc(F)c(Cl)c2)c2c(N)ncnc21
growth inhibition at single dose: < 70%

CCN(CC)CCN1COc2c(cc(Cl)c3cccnc23)C1
growth inhibition at single dose: < 70%

Cc1ccc(NC(=O)c2[nH]nc3c2CCCC3)cc1Cl
growth inhibition at single dose: < 70%

CC1CCN(Cc2c(O)ccc3cc(-c4nc5ccccc5s4)c(=O)oc23)CC1
growth inhibition at single dose: < 70%

CCOc1ccc(C2N(C)c3ccccc3N2C)cc1
growth inhibition at single dose: < 70%

O=C(Nc1ccc(CNc2ncnc3cc(Cl)ccc23)cc1)C1CC1
growth inhibition at single dose: < 70%

O=C(NC1CC1)c1ccc(N2CCC(Cc3ccccc3)CC2)nc1
growth inhibition at single dose: < 70%

Nc1ncnc2c1ncn2C[C@@H](O)[C@@H](O)C(=O)O
growth inhibition at single dose: < 70%

COc1cc(Nc2ncnc3ccsc23)cc(OC)c1
growth inhibition at single dose: < 70%

COc1ccc(NC(=O)c2ccn[nH]2)cc1NC(=O)c1ccc(Cl)cc1F
growth inhibition at single dose: < 70%

Cc1cc(C(=O)CSc2nc3ccccc3[nH]2)c(C)n1-c1ccc(F)cc1
growth inhibition at single dose: < 70%

N=C(N)c1ccc(-c2cc(-c3ccccc3)on2)cc1
growth inhibition at single dose: < 70%

COc1ccc(-c2c(C)nn3c(NCc4ccccn4)cc(C)nc23)cc1OC
growth inhibition at single dose: < 70%

CCCCCCc1cc2cc(-c3nc4ccccc4[nH]3)c(=Nc3ccccc3C)oc2cc1O
growth inhibition at single dose: < 70%

O=C(Nc1nc2c(s1)CCC2)c1cnn(-c2ccccc2)c1C1CC1
growth inhibition at single dose: < 70%

COc1cc(CNC(=O)c2scnc2C)ccc1OC1CCCC1
growth inhibition at single dose: < 70%

CC(C)c1ncc(-c2ccncc2)c([C@H]2CC[C@H](CNC(=O)c3cccnc3)CC2)n1
growth inhibition at single dose: < 70%
